The text below walks through data of patent US9365541B2, “Compounds for use in the treatment of parasitic diseases” (IRBM—SCIENCE PARK S.P.A., priority 2012, dated 2016).

The target of experiment [1] is T1, human HDAC1 (Homo sapiens, UniProt Q13547).
T1 construct: made in house; host or cells: HeLa (ATCC CCL-2), mammalian cells
The experiment can be described thus: Homo sapiens HDAC1 inhibition assay (Fluor-de-Lys, enzymatic). It is filed as biochemical. To be noted: human HDAC enzymatic assay; read-out: hHDAC IC50. The essentials: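 Fluorogenic deacetylation read-out: trypsin developer, supplemented with 2 μM final TSA as stop, releases fluorophore from deacetylated substrate.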

The test system of experiment [2] is HDAC1 (deacetylase activity inside HeLa cells). Briefly: Cell based HDAC1 inhibition (HDAC HeLa Cell based assay). Details: species or system human. The procedure: After result normalization using positive and negative controls, compound potency is determined by fitting the following equation: % inh=Ymin+(Ymax−Ymin)/(1+(X/IC50)^slope)) Where: • Ymin=minimum percentage inhibition • Ymax=maximum percentage inhibition • IC50=the concentration of the compound at which 50% inhibition is reached • Slope=the slope of the curve calculated at the IC50 Cell Based HDAC1 Inhibition Overview:
The aim of the assay is to evaluate the inhibition of the deacetylase activity inside the cells. To such goal a membrane permeable substrate is added to HeLa cells. After the incubation period, cells are lysed and the deacetylated substrate is evaluated using the same principles previously described for the human HDAC1 assay.
HeLa cells (HeLa, cervix adnocarcinoma, ATCC® Number: CCL-2™) frozen stock are derived from cell cultured in DMEM, glutamine, penicilline, streptomicine and 10% fetal bovine serum (FBS). Stock are frozen in 90% FBD and 10% DMSO.
b) HDAC Substrate Buffer System
Reagents of the HDAC Fluorescent Activity Assay are purchased from Enzo Life Sciences (http://www.enzolifesciences.com/BML-AK500/fluor-de-lys-hdac-fluorometric-activity-assay-kit/) and feature the Fluor-de-Lys™ Substrate/Developer System. The reagents include the proprietary fluorescent substrate as a 50 mM stock solution (KI-104), and the Developer Concentrate (KI-105). Deacetylation of the lysine residue of the Fluor-de-Lys substrate is quantified by measuring the fluorescence (ex 360 nm, em 460 nm) after addition of the proprietary developer.
TSA is provided as a 10 mM stock solution in 100% dimethylsulfoxide (DMSO).
Test compounds should be prepared in 100% DMSO and transferred to the assay by a nano volume dispenser to reach the appropriate concentration and the appropriate DMSO concentration (0.25%) in the reaction.
GIBCO Dulbecco's Mod Eagle Medium without Phenol Red (cat n° 11880) Completed with 10% FCS—fetal bovine serum—, 1% Penicillin-Streptomycin (10 mg/ml) and 1% L-Glutamine 200 mM (100×)
f) Diluted Substrate Solution
The commercial 50 mM Fluor-de-Lys substrate (KI-104) is diluted to 400 uM in Assay Buffer prior to each use.
g) Diluted Stop-Lysis-Developer Solution
The reaction is performed in 384-well microplate in a final volume of 20 μl/well+10 μl/well of Stop-Lysis-Developer Mix, as following: • seed 10000 HeLa cells/well, from the frozen aliquots, in 15 μl in assay medium and let recover overnight; • transfer compounds to the assay by nano-volume transfer machine in order to reach the desired assay concentration and a final DMSO concentration of 0.25%; • pre-incubate compounds on cells for 30 min; • start the reaction by adding 5 μl of the Diluted Substrate Solution; • stop the reaction after 4 h incubation at 37° C. 5% CO2 by adding 10 μl of Diluted Stop-Lysis-Developer Solution; • incubate 20 min at 37° C.; • after 10 min at RT measure the fluorescence at excitation 360 nm and emission 460 nm
Negative controls (0% Effect) are produced by addition of DMSO to the proper wells.
Positive controls (100% Effect) are produced by addition of 4 μM TSA to the proper wells.
After result normalization using positive and negative controls, compound potency is determined by fitting the following equation: % inh=Ymin+(Ymax−Ymin)/(1+(X/EC50)^slope)) Where: • Ymin=minimum percentage effect • Ymax=maximum percentage effect • EC50=the concentration of the compound at which 50% effect is reached • Slope=the slope of the curve calculated at the EC50 In Vitro Culture of P. falciparum Parasites

Experiment [3] deals with Plasmodium falciparum 3D7. The experiment can be described thus: P. falciparum growth inhibition assay (Pf-LDH). The experiment is classed as cell-based. To be noted: for Selectivity Index: HDAC HeLa Cell Based IC50 (μM)/Pf-LDH EC50 (μM); for EC50: Plasmodium falciparum, Erythrocyte, P. falciparum 3D7 infected erythrocytes, 72 h incubation, PfLDH readout. The essentials: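 Compounds were tested against 72 h cultures of the 3D7 strain (0.25% parasitemia, 2% hematocrit, 37° C, low-oxygen gas). Parasite growth was quantified as lactate dehydrogenase activity via NBT reduction, absorbance 650 nm, after freezing and thawing.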

T1 sequence (Q13547 whole entry): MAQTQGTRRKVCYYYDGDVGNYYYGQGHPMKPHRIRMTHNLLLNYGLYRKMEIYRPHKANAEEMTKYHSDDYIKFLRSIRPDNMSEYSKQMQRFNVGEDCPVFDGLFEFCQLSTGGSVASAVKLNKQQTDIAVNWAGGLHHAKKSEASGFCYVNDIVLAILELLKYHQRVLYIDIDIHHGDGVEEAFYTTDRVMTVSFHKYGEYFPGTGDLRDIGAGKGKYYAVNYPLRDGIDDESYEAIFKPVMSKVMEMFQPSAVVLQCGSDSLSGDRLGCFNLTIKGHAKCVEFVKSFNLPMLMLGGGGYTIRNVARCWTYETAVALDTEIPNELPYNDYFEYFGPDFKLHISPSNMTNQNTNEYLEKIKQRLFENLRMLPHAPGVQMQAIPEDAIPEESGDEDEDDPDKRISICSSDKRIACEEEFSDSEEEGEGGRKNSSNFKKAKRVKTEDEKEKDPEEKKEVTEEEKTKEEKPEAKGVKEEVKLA

As usually defined, the IC50 is the concentration needed to halve the response being measured. As usually defined, the EC50 is the concentration that produces a half-maximal response. In the case of `CNC(=O)CCCCC[C@H](NC(=O)c1cncs1)c1ncc(-c2ccc(-c3cscn3)cc2)[nH]1` [compound 232, (S)-N-(7-(methylamino)-7-oxo-1-(5-(4-(thiazol-4-yl)phenyl)-1H-imidazol-2-yl)heptyl)thiazole-5-carboxamide], the half-maximal inhibitory concentration (IC50) in experiment [1] lay in the range of 1 to 5 µM. The same compound yielded an IC50 in experiment [2] greater than 5 µM. In experiment [3], the “Selectivity Index” value was found to be 14.2 and the EC50 was less than 1 µM.
As to `CNC(=O)CCCCC[C@H](NC(=O)c1cncs1)c1ncc(-c2ccc(-c3cncs3)cc2)[nH]1` [compound 230, (S)-N-(7-(methylamino)-7-oxo-1-(5-(4-(thiazol-5-yl)phenyl)-1H-imidazol-2-yl)heptyl)thiazole-5-carboxamide], the IC50 in experiment [1] was 1 to 5 µM; in experiment [2], greater than 5 µM. Further, the “Selectivity Index” value in experiment [3] is 3.6. This compound came in with an EC50 in experiment [3] of 1 to 5 µM.
Turning to `CNC(=O)CCCCC[C@H](NC(=O)c1cncs1)c1ncc(-c2ccc(-c3nccs3)cc2)[nH]1` [compound 231, (S)-N-(7-(methylamino)-7-oxo-1-(5-(4-(thiazol-2-yl)phenyl)-1H-imidazol-2-yl)heptyl)thiazole-5-carboxamide], the 50% inhibitory concentration (IC50) in experiment [1] lay in the range of 1 to 5 µM. The IC50 in experiment [2] was greater than 5 µM. In addition, in experiment [3], the “Selectivity Index” value stood at 10.6 and the EC50 is less than 1 µM.
Turning to `CNC(=O)CCCCC[C@H](NC(=O)c1cnn(C(C)C)c1)c1ncc(-c2ccc3cc(OC)ncc3c2)[nH]1` [compound 227, (S)-1-isopropyl-N-(1-(5-(3-methoxyisoquinolin-7-yl)-1H-imidazol-2-yl)-7-(methylamino)-7-oxoheptyl)-1H-pyrazole-4-carboxamide], the 50% inhibitory concentration (IC50) in experiment [1] was less than 1 µM. Further, the half-inhibitory concentration (IC50) in experiment [2] is 1 to 5 µM. In experiment [3], the “Selectivity Index” value is 23.5 and the 50% effective concentration (EC50) is less than 1 µM.
`CNC(=O)CCCCC[C@H](NC(=O)c1cncs1)c1ncc(-c2ccc(-c3cnn(C)c3)cc2)[nH]1` [compound 228, (S)-N-(1-(5-(4-(1-methyl-1H-pyrazol-4-yl)phenyl)-1H-imidazol-2-yl)-7-(methylamino)-7-oxoheptyl)thiazole-5-carboxamide]: the half-maximal inhibitory concentration (IC50) in experiment [1] and in experiment [2] was greater than 5 µM each time. Also, in experiment [3], the “Selectivity Index” value worked out at 6.7. The compound also came in with a 50% effective concentration (EC50) in experiment [3] of 1 to 5 µM.
In the case of `CNC(=O)CCCCC[C@H](NC(=O)c1cnsc1)c1ncc(-c2ccc(-c3ccn(C)n3)cc2)[nH]1` [Entry 210], the IC50 in experiment [1] lay within 1 to 5 µM. For the same compound, the concentration for a half-maximal effect (EC50) in experiment [3] was less than 1 µM.
`CNC(=O)CCCCC[C@H](NC(=O)c1cncs1)c1ncc(-c2ccc(-c3ccnn3C)cc2)[nH]1` [compound 229, (S)-N-(1-(5-(4-(1-methyl-1H-pyrazol-5-yl)phenyl)-1H-imidazol-2-yl)-7-(methylamino)-7-oxoheptyl)thiazole-5-carboxamide]: in experiment [1], the IC50 is greater than 5 µM. Further, in experiment [2], the IC50 was greater than 5 µM. Also, in experiment [3], the “Selectivity Index” value came to 5.6 and the concentration for a half-maximal effect (EC50) fell in the range of 1 to 5 µM.
Regarding `CNC(=O)CCCCC[C@H](NC(=O)c1csc(-c2cccnc2)n1)c1ncc(-c2ccc3ccccc3c2)[nH]1` [Entry 197, (S)-N-(7-(methylamino)-1-(5-(naphthalen-2-yl)-1H-imidazol-2-yl)-7-oxoheptyl)-2-(pyridin-3-yl)thiazole-4-carboxamide], the half-maximal inhibitory concentration (IC50) in experiment [1] was greater than 5 µM. For the same compound, in experiment [3], the EC50 is 1 to 5 µM.
The corresponding values for `CNC(=O)CCCCC[C@H](NC(=O)c1ccc2cnccc2c1)c1ncc(-c2ccc3ccccc3c2)[nH]1` [Entry 114, (S)-N-(7-(methylamino)-1-(5-(naphthalen-2-yl)-1H-imidazol-2-yl)-7-oxo-heptyl)isoquinoline-6-carboxamide] are 1 to 5 µM and 1 to 5 µM.
The corresponding values for `CNC(=O)CCCCC[C@H](NC(=O)c1cc(C(C)(C)C)nn1C)c1ncc(-c2ccc(-c3ccn(C)n3)cc2)[nH]1` [Entry 217, (S)-3-(tert-butyl)-1-methyl-N-(1-(5-(4-(1-methyl-1H-pyrazol-3-yl)phenyl)-1H-imidazol-2-yl)-7-(methylamino)-7-oxoheptyl)-1H-pyrazole-5-carboxamide] are 1 to 5 µM and 1 to 5 µM.
The corresponding values for `CCc1nc2ccccc2n1CCC(=O)N[C@@H](CCCCCC(=O)NC)c1ncc(-c2cc3ccccc3nc2OC)[nH]1` [Entry 8, (S)-7-(3-(2-ethyl-1H-benzo[d]imidazol-1-yl)propanamido)-7-(5-(2-methoxyquinolin-3-yl)-1H-imidazol-2-yl)-N-methylheptanamide] are less than 1 µM and 1 to 5 µM.
`CNC(=O)CCCCC[C@H](NS(=O)(=O)c1cccc([N+](=O)[O-])c1)c1ncc(-c2ccc3ccccc3c2)[nH]1` [Entry 3]: the concentration for half-maximal inhibition (IC50) in experiment [1] was less than 1 µM. This compound also showed an EC50 in experiment [3] of less than 1 µM.
For `CNC(=O)CCCCC[C@H](NC(=O)Cc1nc(C)cs1)c1ncc(-c2ccc3ccncc3c2)[nH]1` [Entry 68], in experiment [1], the concentration for half-maximal inhibition (IC50) lay within 1 to 5 µM. In experiment [3], this compound showed a 50% effective concentration (EC50) greater than 5 µM.
In the same order, the values of `CNC(=O)CCCCC[C@H](NC(=O)CC1=CSC2=NCCCN12)c1ncc(-c2ccc(-c3ccn(C)n3)cc2)[nH]1` [Entry 92, (S)-7-(2-(6,7-dihydro-5H-thiazolo[3,2-a]pyrimidin-3-yl)acetamido)-N-methyl-7-(5-(4-(1-methyl-1H-pyrazol-3-yl)phenyl)-1H-imidazol-2-yl)heptanamide] are 1 to 5 µM and greater than 5 µM.
With `CNC(=O)CCCCC[C@H](NC(=O)c1cc(-c2ccco2)n[nH]1)c1ncc(-c2ccc3ccccc3c2)[nH]1` [Entry 86, (S)-3-(furan-2-yl)-N-(7-(methylamino)-1-(5-(naphthalen-2-yl)-1H-imidazol-2-yl)-7-oxoheptyl)-1H-pyrazole-5-carboxamide], the concentration for half-maximal inhibition (IC50) in experiment [1] was 1 to 5 µM. The compound also displayed an EC50 in experiment [3] of 1 to 5 µM.
With `CNC(=O)CCCCC[C@H](NC(=O)C1CC(=O)Nc2ccccc21)c1ncc(-c2ccc(-n3cccn3)cc2)[nH]1` (stereo partly drawn) [Entry 61, N-((S)-1-(5-(4-(1H-pyrazol-1-yl)phenyl)-1H-imidazol-2-yl)-7-(methylamino)-7-oxoheptyl)-2-oxo-1,2,3,4-tetrahydroquinoline-4-carboxamide], in experiment [1], the IC50 was in the range of 1 to 5 µM. Also, the 50% effective concentration (EC50) in experiment [3] was 1 to 5 µM.
In the case of `CNC(=O)CCCCC[C@H](NC(=O)c1cncs1)c1ncc(-c2ccc(-c3ccncc3)cc2)[nH]1` [Entry 29, (S)-N-(7-(methylamino)-7-oxo-1-(5-(4-(pyridin-4-yl)phenyl)-1H-imidazol-2-yl)heptyl)thiazole-5-carboxamide], the IC50 in experiment [1] lay in the range of 1 to 5 µM. For the same compound, in experiment [3], the EC50 was in the range of 1 to 5 µM.
For `CNC(=O)CCCCC[C@H](NC(=O)Cn1cncn1)c1ncc(-c2ccc3ccncc3c2)[nH]1` [Entry 89, (S)-7-(2-(1H-1,2,4-triazol-1-yl)acetamido)-7-(5-(isoquinolin-7-yl)-1H-imidazol-2-yl)-N-methylheptanamide], the IC50 in experiment [1] was in the range of 1 to 5 µM. The 50% effective concentration (EC50) in experiment [3] lay within 1 to 5 µM.
